Laboratory results as given in paper PMC11492426, “Design, synthesis, and biological evaluation of novel quinoline-based EGFR/HER-2 dual-target inhibitors as potential anti-tumor agents” (RSC Advances, 2024).
Like-named read-outs stand apart in the source and are kept apart here.

How the values were obtained:
[1] = system: HT-29 colon cancer cell line; assay: Antiproliferative assay, HT-29; type: cell-based; details: Homo sapiens; HT-29 colon cancer cells; read-out: Antiproliferative activity IC50 ± SEM, HT-29
[2] = system: A-549 lung cancer cell line; assay: Antiproliferative assay, A-549; type: cell-based; details: Homo sapiens, A549; A-549 lung cancer cells; read-out: Antiproliferative activity IC50 ± SEM, A-549
HER2 = HER2 (Homo sapiens, UniProt P04626); assay: HER2 inhibitory assay (ADP-Glo kinase assay)
[3] = system: four human cancer cell lines (A-549, MCF-7, Panc-1, HT-29); assay: Antiproliferative assay, average over four cancer cell lines; type: cell-based; details: Homo sapiens, average IC50 over the four cancer cell lines
[4] = Cell viability assay (MTT) on MCF-10A normal cells; type: cell-based; details: human, MCF-10A mammary gland epithelial normal cells, MCF-10A cells, four-day incubation
Procedure: The impact of compounds 3a–h and 5a–d on cell viability was evaluated using the human mammary (MCF-10A) gland epithelium normal cell line. The MTT assay was used to evaluate the cell viability of 3a–h and 5a–d after a four-day incubation period on MCF-10A cells.[46] Refer to Appendix A for more details.
The effect of new compounds 3a–h and 5a–d on cell viability was evaluated using the MCF-10A (human mammary gland epithelium) normal cell line.
4.2. Biological evaluation
4.2.1 Cell Viability assay (MTT assay)
MTT assay was performed to investigate the effect of the synthesized compounds on mammary epithelial cells (MCF-10A). The cells were propagated in medium consisting of Ham's F-12 medium/ Dulbecco's modified Eagle's medium (DMEM) (1:1) supplemented with 10% foetal calf serum, 2 mM glutamine, insulin (10 μg/mL), hydrocortisone (500 ng/mL) and epidermal growth factor (20 ng/mL). Trypsin ethylenediamine tetra acetic acid (EDTA) was used to passage the cells after every 2-3 days. 96-well flat-bottomed cell culture plates were used to seed the cells at a density of 10^4 cells mL-1. The medium was aspirated from all the wells of culture plates after 24 h followed by the addition of synthesized compounds (in 200 μL medium to yield a final concentration of 0.1% (v/v) dimethyl sulfoxide) into individual wells of the plates. Four wells were designated to a single compound. The plates were allowed to incubate at 37°C for 96 h. Afterwards, the medium was aspirated and 3-[4,5-dimethylthiazol-2-yl]-2,5-diphenyltetrazolium bromide (MTT) (0.4 mg/mL) in medium was added to each well and subsequently incubated for 3 h. The medium was aspirated and 150 μL dimethyl sulfoxide (DMSO) was added to each well. The plates were vortexed followed by the measurement of absorbance at 540 nm on a microplate reader. The results were presented as inhibition (%) of proliferation in contrast to controls comprising 0.1% DMSO.

EGFR [5] = molecular target: T1, EGFR (Homo sapiens, UniProt P00533); assay: EGFR inhibitory assay (EGFR-TK assay)
[6] = system: MCF-7 breast cancer cell line; assay: Antiproliferative assay, MCF-7; type: cell-based; details: Homo sapiens, MCF7; MCF-7 breast cancer cells; read-out: Antiproliferative activity IC50 ± SEM, MCF-7
[7] = system: Panc-1 pancreatic cancer cell line; assay: Antiproliferative assay, Panc-1; type: cell-based; details: Homo sapiens; Panc-1 pancreatic cancer cells; read-out: Antiproliferative activity IC50 ± SEM, Panc-1
[8] = system: four human cancer cell lines; set-up: method as in ref 39 = [39]; Mohassab A. M. Hassan H. A. Abou-Zied H. A. Fujita M. Otsuka M. Gomaa H. A. Youssif B. G. Abdel-Aziz M. J. Mol. Struct. 2024 1297 136953; details: read-out: GI50 against four cancer cell lines; cited from earlier work
EGFR [9] = molecular target: T1, EGFR; set-up: 645–1186; His6 (N); made in house; host or cells: Sf-9 insect cells (baculovirus vectors pBlueBacHis2B / pFASTBacHTc); method as in ref 38 (Makawana et al.); details: ref 38 (Makawana et al.); cited from earlier work
BRAF^V600E [10] = system: BRAF^V600E; set-up: method as in ref 39 = [39]; Mohassab A. M. Hassan H. A. Abou-Zied H. A. Fujita M. Otsuka M. Gomaa H. A. Youssif B. G. Abdel-Aziz M. J. Mol. Struct. 2024 1297 136953; details: cited from earlier work
BRAF^V600E [11] = system: BRAF^V600E; set-up: method as in PMID 33279248; details: cited from earlier work

T1 sequence (P00533 669-1210): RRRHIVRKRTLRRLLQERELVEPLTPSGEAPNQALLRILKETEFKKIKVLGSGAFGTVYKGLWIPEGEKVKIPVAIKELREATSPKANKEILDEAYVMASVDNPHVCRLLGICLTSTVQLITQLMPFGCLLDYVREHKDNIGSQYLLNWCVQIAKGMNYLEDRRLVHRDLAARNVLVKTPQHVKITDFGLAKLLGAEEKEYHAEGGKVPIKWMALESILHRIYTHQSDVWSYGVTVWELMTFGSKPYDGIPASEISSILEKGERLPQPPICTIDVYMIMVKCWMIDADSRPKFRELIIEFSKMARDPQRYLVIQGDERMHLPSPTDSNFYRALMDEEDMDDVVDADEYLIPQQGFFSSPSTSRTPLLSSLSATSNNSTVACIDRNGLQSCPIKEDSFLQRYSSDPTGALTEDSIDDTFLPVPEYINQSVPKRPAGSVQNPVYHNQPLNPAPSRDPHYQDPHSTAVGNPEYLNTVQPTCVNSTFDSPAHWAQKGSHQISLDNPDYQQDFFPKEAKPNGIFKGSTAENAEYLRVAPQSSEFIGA
Sequence of HER2 (P04626 676-1255 limits assumed): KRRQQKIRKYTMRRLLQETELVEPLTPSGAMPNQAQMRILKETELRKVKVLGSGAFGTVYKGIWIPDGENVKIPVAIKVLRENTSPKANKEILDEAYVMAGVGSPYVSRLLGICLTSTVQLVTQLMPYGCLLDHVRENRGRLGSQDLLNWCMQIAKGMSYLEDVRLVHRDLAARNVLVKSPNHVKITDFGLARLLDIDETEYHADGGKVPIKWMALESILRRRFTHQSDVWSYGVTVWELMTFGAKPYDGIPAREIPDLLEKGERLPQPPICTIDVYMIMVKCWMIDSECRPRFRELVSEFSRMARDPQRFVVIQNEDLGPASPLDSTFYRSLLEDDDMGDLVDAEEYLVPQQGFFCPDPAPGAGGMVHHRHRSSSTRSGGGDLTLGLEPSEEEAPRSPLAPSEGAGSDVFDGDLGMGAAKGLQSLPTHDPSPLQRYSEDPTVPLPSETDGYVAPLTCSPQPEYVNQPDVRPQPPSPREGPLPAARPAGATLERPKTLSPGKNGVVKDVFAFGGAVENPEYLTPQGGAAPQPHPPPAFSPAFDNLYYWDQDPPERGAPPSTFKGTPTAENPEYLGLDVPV

IC50 [1]	IC50 [2]	IC50 (HER2)	GI50 [3]	IC50 (EGFR [5])	IC50 [6]	IC50 [7]	Compound	viability at 96 h, 50 µM [4]	GI50 [8]	further results
40 ± 3 nM	39 ± 4 nM	47 ± 3 nM	39 nM	85 ± 5 nM	35 ± 4 nM	41 ± 4 nM	Cc1ccc2[nH]c(=O)c(C=Nc3ccc(NS(=O)(=O)c4ncccn4)cc3)c(O)c2c1 [Compound 5b, N-(4-(((4-hydroxy-6-methyl-2-oxo-1,2-dihydroquinolin-3-yl)methylene)amino)phenyl)pyrimidine-2-sulfonamide]	90%		
48 ± 4 nM	46 ± 4 nM	53 ± 3 nM	46 nM	93 ± 5 nM	42 ± 4 nM	48 ± 4 nM	Cn1c(=O)c(C=Nc2ccc(NS(=O)(=O)c3ncccn3)cc2)c(O)c2ccccc21 [Compound 5d, N-(4-(((4-hydroxy-1-methyl-2-oxo-1,2-dihydroquinolin-3-yl)methylene)amino)phenyl)pyrimidine-2-sulfonamide]	90%		melting point: 318 to 320 °C
							CC(=NO)c1ccc(NC(=O)c2cc(-c3ccc(S(C)(=O)=O)cc3)nc3ccccc23)cc1 [Compound VIII]		1200 nM	
							COc1ccc(Oc2nc3ccc(C)cc3cc2/C=N/NC(=O)Cn2cc([N+](=O)[O-])nc2C)cc1 [Compound VII]			IC50 (EGFR [9]): 120 ± 50 nM
							COc1cccc2c1C(=O)c1c(O)c3c(c(O)c1C2=O)C[C@@](O)(C(=O)CO)C[C@@H]3O[C@H]1C[C@H](N)[C@H](O)[C@H](C)O1 [doxorubicin]		1400 nM	

Compound	IC50 [1]	IC50 [2]	IC50 (HER2)	GI50 [3]	IC50 (EGFR [5])	IC50 [6]	IC50 [7]	viability at 96 h, 50 µM [4]	GI50 [8]	further results
C#Cc1cccc(Nc2ncnc3cc(OCCOC)c(OCCOC)cc23)c1 [Erlotinib, reference compound]	30 ± 3 nM	30 ± 3 nM				40 ± 3 nM	30 ± 3 nM			IC50 (BRAF^V600E [10]): […]; IC50 (BRAF^V600E [11]): […]
